# Patent US8802678B2, “Carbonylated (aza) cyclohexanes as dopamine D3 receptor ligands” (Bioprojet, priority 2006, dated 2014)
row,SMILES,melting point [°C]
1,"CS(=O)(=O)CC(=O)N[C@H]1CC[C@H](CCN2CCN(c3cccc(F)c3F)CC2)CC1 [Example 426, N-(4-{2-[4-(2,3-Difluorophenyl)-piperazin-1-yl]ethyl}cyclohexyl)-2-methanesulfonylacetamide]",214
2,"CS(=O)(=O)CC(=O)N[C@H]1CC[C@H](CCN2CCN(c3ccc(Cl)cc3)CC2)CC1 [Example 427, N-(4-{2-[4-(4-Chlorophenyl)-piperazin-1-yl]ethyl}cyclohexyl)-2-methanesulfonylacetamide]",214
3,"Cc1ccccc1N1CCN(CC[C@H]2CC[C@H](NC(=O)CCCC#N)CC2)CC1 [Example 428, 4-Cyano-N-{4-[2-(4-o-tolylpiperazin-1-yl)ethyl]cyclohexyl}butanamide]",160
4,"Cc1cccc(N2CCN(CC[C@H]3CC[C@H](NC(=O)CCCC#N)CC3)CC2)c1C [Example 429, 4-Cyano-N-(4-{2-[4-(2,3-dimethylphenyl)piperazin-1-yl]ethyl}cyclohexyl)butanamide]",162
5,"N#CCCCC(=O)N[C@H]1CC[C@H](CCN2CCN(c3ccc(F)c(C(F)(F)F)c3)CC2)CC1 [Example 430, 4-Cyano-N-(4-{2-[4-(4-fluoro-3-trifluoromethylphenyl)piperazin-1-yl]ethyl}cyclohexyl)butanamide]",149
6,"O=C(N[C@H]1CC[C@H](CCN2CCN(c3ccc(F)cc3)CC2)CC1)C1=CCCC1 [Example 431, Cyclopent-1-enecarboxylic acid (4-{2-[4-(4-fluorophenyl)-piperazin-1-yl]ethyl}cyclohexyl) amide]",227
7,"N#CCCCC(=O)N[C@H]1CC[C@H](CCN2CCN(c3cc(C#N)cc(C(F)(F)F)c3)CC2)CC1 [Example 432, 4-Cyano-N-(4-{2-[4-(3-cyano-5-trifluoromethylphenyl)piperazin-1-yl]ethyl}cyclohexyl)butanamide]",174
8,"Cc1cc(Cl)cc(N2CCN(CC[C@H]3CC[C@H](NC(=O)CC#N)CC3)CC2)c1 [Example 437, N-(4-{2-[4-(3-Chloro-5-methylphenyl)piperazin-1-yl]ethyl}cyclohexyl)-2-cyanoacetamide]",185
9,"Cc1cc(Cl)cc(N2CCN(CC[C@H]3CC[C@H](NC(=O)CCCC#N)CC3)CC2)c1 [Example 438, N-(4-{2-[4-(3-Chloro-5-methylphenyl)piperazin-1-yl]ethyl}cyclohexyl)-4-cyanobutanamide]",165
10,"CCOc1ccccc1N1CCN(CC[C@H]2CC[C@H](NC(=O)CCCC#N)CC2)CC1 [Example 439, 4-Cyano-N-(4-{2-[4-(2-ethoxyphenyl)piperazin-1-yl]ethyl}cyclohexyl)butanamide]",137
11,"Cc1ccc(F)c(N2CCN(CC[C@H]3CC[C@H](NC(=O)CCCC#N)CC3)CC2)c1 [Example 440, 4-Cyano-N-(4-{2-[4-(2-fluoro-5-methylphenyl)piperazin-1-yl]ethyl}cyclohexyl)butanamide]",156
12,"O=C(N[C@H]1CC[C@H](CCN2CCN(c3cc(F)ccc3F)CC2)CC1)C1=CCCC1 [Example 441, Cyclopent-1-enecarboxylic acid (4-{2-[4-(2,5-difluorophenyl)-piperazin-1-yl]ethyl}cyclohexyl) amide]",209
13,"N#CCCCC(=O)N[C@H]1CC[C@H](CCN2CCN(c3cc(F)ccc3F)CC2)CC1 [Example 442, 4-Cyano-N-(4-{2-[4-(2,5-difluorophenyl)piperazin-1-yl]ethyl}cyclohexyl)butanamide]",159
14,"O=C(N[C@H]1CC[C@H](CCN2CCN(c3cccc(C(F)(F)F)c3F)CC2)CC1)C(F)F [Example 443, 2,2-Difluoro-N-(4-{2-[4-(2-fluoro-3-trifluoromethylphenyl)piperazin-1-yl]ethyl}cyclohexyl)acetamide]",156
15,"N#CCCCC(=O)N[C@H]1CC[C@H](CCN2CCN(c3cccc(F)c3F)CC2)CC1 [Example 445, 4-Cyano-N-(4-{2-[4-(2,3-difluorophenyl)piperazin-1-yl]ethyl}cyclohexyl)butanamide]",197
16,"O=C(CC(F)(F)F)N[C@H]1CC[C@H](CCN2CCN(c3cccc(F)c3F)CC2)CC1 [Example 446, N-(4-{2-[4-(2,3-Difluorophenyl)piperazin-1-yl]ethyl}cyclohexyl)-3,3,3-trifluoropropanamide]",220
17,"O=C(N[C@H]1CC[C@H](CCN2CCN(c3cccc(F)c3F)CC2)CC1)C1=CCCC1 [Example 447, Cyclopent-1-enecarboxylic acid (4-{2-[4-(2,3-difluorophenyl)-piperazin-1-yl]ethyl}cyclohexyl) amide]",225
18,"N#CCCCC(=O)N[C@H]1CC[C@H](CCN2CCN(c3cccc(C#N)c3)CC2)CC1 [Example 448, 4-Cyano-N-(4-{2-[4-(3-cyanophenyl)piperazin-1-yl]ethyl}cyclohexyl)butanamide]",184
19,"COc1c(Cl)cccc1N1CCN(CC[C@H]2CC[C@H](NC(=O)CCCC#N)CC2)CC1 [Example 449, N-(4-{2-[4-(3-Chloro-2-methoxyphenyl)piperazin-1-yl]ethyl}cyclohexyl)-4-cyanobutanamide]",118

row,SMILES,melting point [°C]
1,"N#CCC(=O)N[C@H]1CC[C@H](CCN2CCN(c3ccc(F)c(F)c3F)CC2)CC1 [Example 450, 2-Cyano-N-(4-{2-[4-(2,3,4-trifluorophenyl)piperazin-1-yl]ethyl}cyclohexyl)acetamide]",207
2,"N#CCCCC(=O)N[C@H]1CC[C@H](CCN2CCN(c3ccc(F)c(F)c3F)CC2)CC1 [Example 451, 4-Cyano-N-(4-{2-[4-(2,3,4-trifluorophenyl)piperazin-1-yl]ethyl}cyclohexyl)butanamide]",178
3,"CS(=O)(=O)c1cccc(N2CCN(CC[C@H]3CC[C@H](NC(=O)CC(F)(F)F)CC3)CC2)c1 [Example 452, 3,3,3-Trifluoro-N-(4-{2-[4-(3-methanesulfonylphenyl)piperazin-1-yl]ethyl}cyclohexyl)-propanamide]",173
4,"N#CCC(=O)N[C@H]1CC[C@H](CCN2CCN(c3cccc4c3CCC4)CC2)CC1 [Example 456, 2-Cyano-N-{4-[2-(4-indan-4-ylpiperazin-1-yl)ethyl]cyclohexyl}acetamide]",175
5,"N#CCCCC(=O)N[C@H]1CC[C@H](CCN2CCN(c3cccc4c3CCC4)CC2)CC1 [Example 457, 4-Cyano-N-{4-[2-(4-indan-4-ylpiperazin-1-yl)ethyl]cyclohexyl}butanamide]",157
6,"O=C(N[C@H]1CC[C@H](CCN2CCN(c3cccc(C(F)(F)F)c3F)CC2)CC1)C1=CCCC1 [Example 458, Cyclopent-1-enecarboxylic acid (4-{2-[4-(2-fluoro-3-trifluoro-methylphenyl)piperazin-1-yl]ethyl}cyclohexyl) amide]",190
7,"NC(=O)CCC(=O)N[C@H]1CC[C@H](CCN2CCN(c3cccc(C(F)(F)F)c3F)CC2)CC1 [Example 459, N-(4-{2-[4-(2-Fluoro-3-trifluoro-methylphenyl)piperazin-1-yl]ethyl}cyclohexyl)succinamide]",244
8,"N#CCCC(F)(F)C(=O)N[C@H]1CC[C@H](CCN2CCN(c3cccc(C(F)(F)F)c3F)CC2)CC1 [Example 460, 4-Cyano-2,2-difluoro-N-(4-{2-[4-(2-fluoro-3-trifluoromethyl-phenyl)piperazin-1-yl]ethyl}cyclohexyl)butanamide]",151
9,"CS(=O)(=O)c1cccc(N2CCN(CC[C@H]3CC[C@H](NC(=O)C(F)(F)F)CC3)CC2)c1 [Example 461, 2,2,2-Trifluoro-N-(4-{2-[4-(3-methanesulfonylphenyl)piperazin-1-yl]ethyl}cyclohexyl)acetamide]",132
10,"N#CCCCC(=O)NC1CCC(CCN2CCN(c3cccc(-c4ccccc4)c3)CC2)CC1 (stereo not shown) [Example 462, N-{4-[2-(4-Biphenyl-3-ylpiperazin-1-yl)ethyl]cyclohexyl}-4-cyanobutanamide]",119
11,"O=C(N[C@H]1CC[C@H](CCN2CCN(c3cc(F)c(F)c(F)c3)CC2)CC1)C1=CCCC1 [Example 463, Cyclopent-1-enecarboxylic acid (4-{2-[4-(3,4,5-trifluorophenyl)piperazin-1-yl]ethyl}cyclohexyl) amide]",208
12,"CC(=O)CN1CCC(CCN2CCN(c3ccc(C)c(C#N)c3)CC2)CC1 [Example 464, 2-Methyl-5-(4-{2-[1-(2-oxopropyl)piperidin-4-yl]ethyl}piperazin-1-yl)benzonitrile]",107
13,"CCOCC(=O)N[C@H]1CC[C@H](CCN2CCN(c3cc(F)c(F)c(F)c3)CC2)CC1 [Example 465, 2-Ethoxy-N-(4-{2-[4-(3,4,5-trifluorophenyl)piperazin-1-yl]ethyl}cyclohexyl)acetamide]",133
14,"O=C(N[C@H]1CC[C@H](CCN2CCN(c3cc(F)c(F)c(F)c3)CC2)CC1)C1CC=CC1 [Example 466, Cyclopent-3-enecarboxylic acid (4-{2-[4-(3,4,5-trifluorophenyl)piperazin-1-yl]ethyl}cyclohexyl) amide]",224
15,"Cc1ccc(N2CCN(CC[C@H]3CC[C@H](NC(=O)CCCC#N)CC3)CC2)cc1 [Example 467, 4-Cyano-N-{4-[2-(4-p-tolylpiperazin-1-yl)ethyl]cyclohexyl}butanamide]",189
16,"CS(=O)(=O)c1cccc(N2CCN(CC[C@H]3CC[C@H](NC(=O)CCC(F)(F)F)CC3)CC2)c1 [Example 469, 4,4,4-Trifluoro-N-(4-{2-[4-(3-methanesulfonylphenyl)piperazin-1-yl]ethyl}cyclohexyl)butanamide]",205
17,"COCCCC(=O)N[C@H]1CC[C@H](CCN2CCN(c3cccc(C(F)(F)F)c3F)CC2)CC1 [Example 470, N-(4-{2-[4-(2-Fluoro-3-trifluoromethylphenyl)piperazin-1-yl]ethyl}cyclohexyl)-4-methoxybutanamide]",175
18,"N#CCCCC(=O)N[C@H]1CC[C@H](CCN2CCN(c3ccc(Cl)cc3F)CC2)CC1 [Example 471, N-(4-{2-[4-(4-Chloro-2-fluorophenyl)piperazin-1-yl]ethyl}cyclohexyl)-4-cyanobutanamide]",171
